{
  "source": "ChEMBL document CHEMBL3885881",
  "about": "“DrugMatrix”",
  "organism": "Rattus norvegicus",
  "experiment": "DrugMatrix - Regimen: Daily Repeat",
  "assay_type": "toxicity, organism-based, Sprague-Dawley",
  "set-up": "regimen Daily Repeat, gender Male, age 6-8 weeks",
  "details": "in vivo, po, 35 mg/kg, route oral GAVAGE, dose level Low, vehicle .5 % CMC; for ABSOLUTE BASOPHIL / ABSOLUTE EOSINOPHIL / ABSOLUTE LYMPHOCYTE / ABSOLUTE MONOCYTE / ABSOLUTE SEGMENTED NEUTROPHIL / BASOPHIL / EOSINOPHIL / ERYTHROCYTE COUNT / HEMATOCRIT / HEMOGLOBIN / LEUKOCYTE COUNT / LYMPHOCYTE / MEAN CORPUSCULAR HEMOGLOBIN / MEAN CORPUSCULAR HEMOGLOBIN CONCENTRATION / MEAN CORPUSCULAR VOLUME / MONOCYTE / NEUTROPHIL / NUCLEATED RED BLOOD CELLS / PLATELET COUNT: tissue Blood; for ALANINE AMINOTRANSFERASE / ALBUMIN / ALKALINE PHOSPHATASE / ASPARTATE AMINOTRANSFERASE / BLOOD UREA NITROGEN / CARBON DIOXIDE / CHLORIDE / CHOLESTEROL / CREATINE PHOSPHOKINASE / CREATININE / GLUCOSE / LACTATE DEHYDROGENASE / LIPASE / PHOSPHORUS / POTASSIUM / SODIUM / TOTAL BILIRUBIN / TOTAL PROTEIN / URIC ACID: tissue Plasma",
  "data": [
    {"compound": "COC(=O)C1=C(C)NC(C)=C(C(=O)OC)C1c1ccccc1[N+](=O)[O-]", "note": "[NIFEDIPINE]", "values": [
      {"measurement": "ABSOLUTE BASOPHIL", "setting": "72 h, time 3 day", "value": 0, "unit": "CELLS/uL"},
      {"measurement": "ABSOLUTE EOSINOPHIL", "setting": "72 h, time 3 day", "value": 0, "unit": "CELLS/uL"},
      {"measurement": "ABSOLUTE LYMPHOCYTE", "setting": "72 h, time 3 day", "value": 17514.67, "unit": "CELLS/uL"},
      {"measurement": "ABSOLUTE MONOCYTE", "setting": "72 h, time 3 day", "value": 172, "unit": "CELLS/uL"},
      {"measurement": "ABSOLUTE SEGMENTED NEUTROPHIL", "setting": "72 h, time 3 day", "value": 1213.33, "unit": "CELLS/uL"},
      {"measurement": "BASOPHIL", "setting": "72 h, time 3 day", "value": 0, "unit": "%"},
      {"measurement": "EOSINOPHIL", "setting": "72 h, time 3 day", "value": 0, "unit": "%"},
      {"measurement": "ERYTHROCYTE COUNT", "setting": "72 h, time 3 day", "value": 5.2, "unit": "x10E6/uL"},
      {"measurement": "HEMATOCRIT", "setting": "72 h, time 3 day", "value": 33.43, "unit": "%"},
      {"measurement": "HEMOGLOBIN", "setting": "72 h, time 3 day", "value": 12.8, "unit": "G/DL"},
      {"measurement": "LEUKOCYTE COUNT", "setting": "72 h, time 3 day", "value": 18.9, "unit": "x10E3/uL"},
      {"measurement": "LYMPHOCYTE", "setting": "72 h, time 3 day", "value": 92.67, "unit": "%"},
      {"measurement": "MEAN CORPUSCULAR HEMOGLOBIN", "setting": "72 h, time 3 day", "value": 24.63, "unit": "pg"},
      {"measurement": "MEAN CORPUSCULAR HEMOGLOBIN CONCENTRATION", "setting": "72 h, time 3 day", "value": 38.27, "unit": "G/DL"},
      {"measurement": "MEAN CORPUSCULAR VOLUME", "setting": "72 h, time 3 day", "value": 64.3, "unit": "fL"},
      {"measurement": "MONOCYTE", "setting": "72 h, time 3 day", "value": 1, "unit": "%"},
      {"measurement": "NEUTROPHIL", "setting": "72 h, time 3 day", "value": 6.33, "unit": "%"},
      {"measurement": "NUCLEATED RED BLOOD CELLS", "setting": "72 h, time 3 day", "value": "0.33 /100WBC"},
      {"measurement": "PLATELET COUNT", "setting": "72 h, time 3 day", "value": 1358.33, "unit": "x10E3/uL"},
      {"measurement": "ALANINE AMINOTRANSFERASE", "setting": "72 h, time 3 day", "value": 46, "unit": "u/L"},
      {"measurement": "ALBUMIN", "setting": "72 h, time 3 day", "value": 4.37, "unit": "G/DL"},
      {"measurement": "ALKALINE PHOSPHATASE", "setting": "72 h, time 3 day", "value": 361.33, "unit": "u/L"},
      {"measurement": "ASPARTATE AMINOTRANSFERASE", "setting": "72 h, time 3 day", "value": 91.33, "unit": "u/L"},
      {"measurement": "BLOOD UREA NITROGEN", "setting": "72 h, time 3 day", "value": 21.67, "unit": "mg/dL"},
      {"measurement": "CARBON DIOXIDE", "setting": "72 h, time 3 day", "value": 24, "unit": "mmol/L"},
      {"measurement": "CHLORIDE", "setting": "72 h, time 3 day", "value": 106.33, "unit": "MEQ/L"},
      {"measurement": "CHOLESTEROL", "setting": "72 h, time 3 day", "value": 90.67, "unit": "mg/dL"},
      {"measurement": "CREATINE PHOSPHOKINASE", "setting": "72 h, time 3 day", "value": 276, "unit": "u/L"},
      {"measurement": "CREATININE", "setting": "72 h, time 3 day", "value": 0.31, "unit": "mg/dL"},
      {"measurement": "GLUCOSE", "setting": "72 h, time 3 day", "value": 142.67, "unit": "mg/dL"},
      {"measurement": "LACTATE DEHYDROGENASE", "setting": "72 h, time 3 day", "value": 570, "unit": "u/L"},
      {"measurement": "LIPASE", "setting": "72 h, time 3 day", "value": 11, "unit": "u/L"},
      {"measurement": "PHOSPHORUS", "setting": "72 h, time 3 day", "value": 11.77, "unit": "mg/dL"},
      {"measurement": "POTASSIUM", "setting": "72 h, time 3 day", "value": 6.88, "unit": "MEQ/L"},
      {"measurement": "SODIUM", "setting": "72 h, time 3 day", "value": 148.6, "unit": "MEQ/L"},
      {"measurement": "TOTAL BILIRUBIN", "setting": "72 h, time 3 day", "value": 0.2, "unit": "mg/dL"},
      {"measurement": "TOTAL PROTEIN", "setting": "72 h, time 3 day", "value": 6.2, "unit": "G/DL"},
      {"measurement": "URIC ACID", "setting": "72 h, time 3 day", "value": 1.67, "unit": "mg/dL"},
      {"measurement": "ABSOLUTE BASOPHIL", "setting": "120 h, time 5 day", "value": 0, "unit": "CELLS/uL"},
      {"measurement": "ABSOLUTE EOSINOPHIL", "setting": "120 h, time 5 day", "value": 0, "unit": "CELLS/uL"},
      {"measurement": "ABSOLUTE LYMPHOCYTE", "setting": "120 h, time 5 day", "value": 11212.33, "unit": "CELLS/uL"},
      {"measurement": "ABSOLUTE MONOCYTE", "setting": "120 h, time 5 day", "value": 196, "unit": "CELLS/uL"},
      {"measurement": "ABSOLUTE SEGMENTED NEUTROPHIL", "setting": "120 h, time 5 day", "value": 1358.33, "unit": "CELLS/uL"},
      {"measurement": "BASOPHIL", "setting": "120 h, time 5 day", "value": 0, "unit": "%"},
      {"measurement": "EOSINOPHIL", "setting": "120 h, time 5 day", "value": 0, "unit": "%"},
      {"measurement": "ERYTHROCYTE COUNT", "setting": "120 h, time 5 day", "value": 6.29, "unit": "x10E6/uL"},
      {"measurement": "HEMATOCRIT", "setting": "120 h, time 5 day", "value": 40.53, "unit": "%"},
      {"measurement": "HEMOGLOBIN", "setting": "120 h, time 5 day", "value": 14.9, "unit": "G/DL"},
      {"measurement": "LEUKOCYTE COUNT", "setting": "120 h, time 5 day", "value": 12.77, "unit": "x10E3/uL"},
      {"measurement": "LYMPHOCYTE", "setting": "120 h, time 5 day", "value": 88.33, "unit": "%"},
      {"measurement": "MEAN CORPUSCULAR HEMOGLOBIN", "setting": "120 h, time 5 day", "value": 23.67, "unit": "pg"},
      {"measurement": "MEAN CORPUSCULAR HEMOGLOBIN CONCENTRATION", "setting": "120 h, time 5 day", "value": 36.77, "unit": "G/DL"},
      {"measurement": "MEAN CORPUSCULAR VOLUME", "setting": "120 h, time 5 day", "value": 64.4, "unit": "fL"},
      {"measurement": "MONOCYTE", "setting": "120 h, time 5 day", "value": 1.33, "unit": "%"},
      {"measurement": "NEUTROPHIL", "setting": "120 h, time 5 day", "value": 10.33, "unit": "%"},
      {"measurement": "NUCLEATED RED BLOOD CELLS", "setting": "120 h, time 5 day", "value": "0 /100WBC"},
      {"measurement": "PLATELET COUNT", "setting": "120 h, time 5 day", "value": 1155, "unit": "x10E3/uL"},
      {"measurement": "ALANINE AMINOTRANSFERASE", "setting": "120 h, time 5 day", "value": 57, "unit": "u/L"},
      {"measurement": "ALBUMIN", "setting": "120 h, time 5 day", "value": 4.5, "unit": "G/DL"},
      {"measurement": "ALKALINE PHOSPHATASE", "setting": "120 h, time 5 day", "value": 414.33, "unit": "u/L"},
      {"measurement": "ASPARTATE AMINOTRANSFERASE", "setting": "120 h, time 5 day", "value": 79.67, "unit": "u/L"},
      {"measurement": "BLOOD UREA NITROGEN", "setting": "120 h, time 5 day", "value": 19, "unit": "mg/dL"},
      {"measurement": "CARBON DIOXIDE", "setting": "120 h, time 5 day", "value": 23, "unit": "mmol/L"},
      {"measurement": "CHLORIDE", "setting": "120 h, time 5 day", "value": 104, "unit": "MEQ/L"},
      {"measurement": "CHOLESTEROL", "setting": "120 h, time 5 day", "value": 81.67, "unit": "mg/dL"},
      {"measurement": "CREATINE PHOSPHOKINASE", "setting": "120 h, time 5 day", "value": 210, "unit": "u/L"},
      {"measurement": "CREATININE", "setting": "120 h, time 5 day", "value": 0.21, "unit": "mg/dL"},
      {"measurement": "GLUCOSE", "setting": "120 h, time 5 day", "value": 163.67, "unit": "mg/dL"},
      {"measurement": "LACTATE DEHYDROGENASE", "setting": "120 h, time 5 day", "value": 114.33, "unit": "u/L"},
      {"measurement": "LIPASE", "setting": "120 h, time 5 day", "value": 10, "unit": "u/L"},
      {"measurement": "PHOSPHORUS", "setting": "120 h, time 5 day", "value": 13.37, "unit": "mg/dL"},
      {"measurement": "POTASSIUM", "setting": "120 h, time 5 day", "value": 7.57, "unit": "MEQ/L"},
      {"measurement": "SODIUM", "setting": "120 h, time 5 day", "value": 147, "unit": "MEQ/L"},
      {"measurement": "TOTAL BILIRUBIN", "setting": "120 h, time 5 day", "value": 0.27, "unit": "mg/dL"},
      {"measurement": "TOTAL PROTEIN", "setting": "120 h, time 5 day", "value": 6.5, "unit": "G/DL"},
      {"measurement": "URIC ACID", "setting": "120 h, time 5 day", "value": 2, "unit": "mg/dL"}
    ]}
  ]
}
